Source: article PMC9289467, “A Novel Multifunctional 5,6-Dimethoxy-Indanone-Chalcone-Carbamate Hybrids Alleviates Cognitive Decline in Alzheimer’s Disease by Dual Inhibition of Acetylcholinesterase and Inflammation” (Frontiers in Aging Neuroscience, 2022)

How the values were obtained:
[1] = molecular target: T1, pre-formed Aβ40-AChE fibrils complex (Homo sapiens, UniProt P22303); test: Disaggregation of pre-formed Aβ40-AChE fibrils (ThT); type: biochemical; settings: Aβ40 pre-aggregated with AChE for 2 days before co-incubation with AP5
T1 construct: purchased Roche (AChE); Invitrogen (Aβ40) R005282 (AChE); 03-136 (Aβ40)
T1 sequence (P22303 32-614, one chain of several): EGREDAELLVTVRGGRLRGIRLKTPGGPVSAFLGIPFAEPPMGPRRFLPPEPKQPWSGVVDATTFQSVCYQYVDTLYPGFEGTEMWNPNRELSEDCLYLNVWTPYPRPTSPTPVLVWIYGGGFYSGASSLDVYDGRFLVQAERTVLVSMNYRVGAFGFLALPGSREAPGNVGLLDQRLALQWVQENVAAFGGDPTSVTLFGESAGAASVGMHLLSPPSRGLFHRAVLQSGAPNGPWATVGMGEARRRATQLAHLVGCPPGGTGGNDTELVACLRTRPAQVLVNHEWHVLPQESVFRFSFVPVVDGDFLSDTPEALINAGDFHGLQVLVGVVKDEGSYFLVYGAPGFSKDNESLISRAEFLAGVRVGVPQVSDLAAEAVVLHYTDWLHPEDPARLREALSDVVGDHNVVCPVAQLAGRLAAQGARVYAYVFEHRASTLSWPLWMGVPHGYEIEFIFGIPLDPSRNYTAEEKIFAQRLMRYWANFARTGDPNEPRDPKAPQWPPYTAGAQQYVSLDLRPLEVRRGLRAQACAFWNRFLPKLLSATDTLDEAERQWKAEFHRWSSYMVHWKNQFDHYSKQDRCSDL
Experimental: The effects of AP5 on Aβ fibril formation and pre-formed Aβ fibrils disaggregation were determined using a previously described method of Thioflavin T (ThT, T3516, Sigma Aldrich, St. Louis, MO, United States) fluorometry ([Jan et al., 2010]).
Supplementary materials and methods … ...1 […]
Supplementary Figure 1 … .....7
Supplementary Figure 2 … .....7
Supplementary materials and methods
Prepations ofspecimen for pharmacokinetics analysis
24 h afterdosing. Brains were collected at0, 0.25, 0.5,2, 4,8 and 24 h after administration.Plasma extractions were performed by adding 90 μL methanol and 2 μL internalstandard letrozole (500 ng/mL) to a30 µL plasma sample. […]
Then 90 μL methanol and 2 μL letrozolewere added to 30 µl brainhomogenates. The samples were vortexed for 3 min and centrifuged 15 min at25,000 g.The plasma and brainhomogenate were analyzed by UPLC-TSQ/MS (Thermo Fisher Scientific, Waltham, MA, USA). […]
To study the kinetics of Aβ-AChE fibril complex formation, 10 μM Aβ was mixed with AChE (R005282, Roche, Basel, Switzerland) and different concentrations AP5 and incubated with 10 μM ThT and 50 mM glycine-NaOH (pH 8.5) at 37°C, the ThT fluorescence was continually measured for 24 h at 30 min intervals. […] Fluorescence emission at485 nm was measured on a Spectra MAX GeminiXS fluorometerat an excitation wavelength of 450 nm. […]

[2] = tested on: TNF-α, IL-6, IL-1β; test: ELISA of proinflammatory cytokines, APP/PS1 mice; type: in vivo; settings: TBS fraction, AP5 40 mg/kg once daily 5 months
Experimental: APP/PS1 mice of ages 6 months were randomly divided into vehicle (APP/PS1, n = 10) and treatment groups (AP5, n = 10), which were intragastrically administered with AP5 (40 mg/kg) once daily for consecutive 5 months. AP5 was dissolved in distilled water containing 1% sodium carboxymethyl cellulose.
For detecting the pathological soluble or insoluble Aβ in mice, sequential extractions were performed as follows: the half of right hippocampus and cortex from three groups were homogenized in TBS solution containing 5 mM EDTA, phosphatase inhibitor (P1050, Beyotime, Shanghai, China), and protease inhibitor cocktail (P1010, Beyotime) followed by centrifugation at 25,000g at 4°C for 1 h. The supernatant was collected as a TBS fraction and the resulting pellet was solubilized in 70% formic acid (FA), sonicated until the lysis buffer was clear, followed by centrifugation at 25,000g at 4°C for 1 h. The supernatant was collected as the FA fraction and neutralized (1:20) in a neutralization buffer (1 M tris base, 0.5 M Na2HPO4, 0.05% NaN3). Human Aβ40 and Aβ42 were determined by ELISA kits (E-EL-H0452c and E-EL-H0453c, Elabscience, Wuhan, China) in accordance with the manufacturer’s instructions. In addition, the levels of IL-1β (88-7013-88, Invitrogen), IL-6 (EK206HS-96, Multi sciences, HangZhou, China), and TNF-α (88-7324-88, Invitrogen) in TBS fraction were also determined by ELISA.

**Q.** Which results are given for CCN(C)C(=O)Oc1cccc(/C=C2\Cc3cc(OC)c(OC)cc3C2=O)c1 [AP5, (E)-3-((5,6-dimethoxy-1-oxo-1,3-dihydro-2H-inden-2-ylidene)-methyl)phenylethyl(methyl)carbamate]?
**A.** ThT fluorescence intensity, disaggregation of pre-formed Aβ40 fibrils [1]: marked decline of ThT fluorescence intensity; IL-1β level [2]: markedly reduced; IL-6 level [2]: markedly reduced; TNF-α level [2]: markedly reduced
